Experimental data as given in US20220288014A1, “ORAL FORMULATIONS OF CANNABIS EXTRACTS AND METHODS OF MAKING SAME” (Neptune Wellness Solutions Inc., priority 2019, published 2022).

Tests used:
[1] = Example 1: rat pharmacokinetics of CBD and THC from cannabis extract (1:1 THC:CBD), IV bolus and oral gavage in MCT, TG-O3 or MAG-O3 carrier oil; settings: intravenous administration of cannabis extract in lipid-free solution, at 5 minutes (data not shown)
[2] = Example 2: rat pharmacokinetics of CBD and THC from cannabis extract (1:1 THC:CBD), IV bolus and oral gavage in MCT, TG-O3 or krill oil (PL-O3); format: in vivo; settings: intravenous administration of cannabis extract in lipid-free solution, at 5 minutes (data not shown)
From the text: The study design and methods of analyses of the pre-clinical study were the same as disclosed in Example 1.
Values are expressed as mean±SEM.

CCCCCc1cc(O)c2c(c1)OC(C)(C)[C@@H]1CCC(C)=C[C@@H]21 [THC, Δ^9tetrahydrocannabinol]
peak plasma concentration [1]: 864 ± 194 ng/mL
peak plasma concentration [2]: 864 ± 194 ng/mL

C=C(C)[C@@H]1CCC(C)=C[C@H]1c1c(O)cc(CCCCC)cc1O [CBD, cannabidiol]
peak plasma concentration [1]: 1193 ± 290 ng/mL
peak plasma concentration [2]: 1193 ± 290 ng/mL
